The record followed here is ChEMBL document CHEMBL1150915, “Dehydroradiosumin, a trypsin inhibitor from the cyanobacterium Anabaena cylindrica” (J Nat Prod, 1998).

Structures are written as SMILES. pIC50: −log10 of the molar value. In brackets after ≈: the same amount, converted by molar mass. Activity calls are given as the source filed them. The calls are words filed in the database; no cut-off is given here.

The target in one assay is T1, Papain (Carica papaya) (UniProt P00784).
T1 sequence (whole entry): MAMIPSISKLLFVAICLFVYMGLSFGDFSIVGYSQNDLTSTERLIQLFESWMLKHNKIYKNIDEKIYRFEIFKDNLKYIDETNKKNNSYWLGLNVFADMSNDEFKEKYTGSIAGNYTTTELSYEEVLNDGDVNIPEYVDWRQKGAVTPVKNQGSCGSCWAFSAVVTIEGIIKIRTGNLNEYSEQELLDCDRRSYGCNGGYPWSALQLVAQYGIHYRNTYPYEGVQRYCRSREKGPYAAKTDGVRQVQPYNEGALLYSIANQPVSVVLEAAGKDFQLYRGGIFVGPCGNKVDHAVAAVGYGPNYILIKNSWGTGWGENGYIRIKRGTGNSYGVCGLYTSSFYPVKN
Put plainly: Inhibition of Carica papaya papain at 100 ug/mL.

Assay [1] concerns the target Prothrombin (Homo sapiens) (UniProt P00734). Kind of assay: Inhibition of thrombin at 100 ug/mL.
Assay [2] is described as follows: Inhibition of chymotrypsin at 100 ug/mL.
Assay [3] in a line: Inhibition of trypsin.
A further assay deals with Plasminogen (Homo sapiens, UniProt P00747). Kind of assay: Inhibition of plasmin.
A short description of assay [4]: Inhibition of elastase at 100 ug/mL.

Plasminogen, sequence (P00747 97-580 limits assumed): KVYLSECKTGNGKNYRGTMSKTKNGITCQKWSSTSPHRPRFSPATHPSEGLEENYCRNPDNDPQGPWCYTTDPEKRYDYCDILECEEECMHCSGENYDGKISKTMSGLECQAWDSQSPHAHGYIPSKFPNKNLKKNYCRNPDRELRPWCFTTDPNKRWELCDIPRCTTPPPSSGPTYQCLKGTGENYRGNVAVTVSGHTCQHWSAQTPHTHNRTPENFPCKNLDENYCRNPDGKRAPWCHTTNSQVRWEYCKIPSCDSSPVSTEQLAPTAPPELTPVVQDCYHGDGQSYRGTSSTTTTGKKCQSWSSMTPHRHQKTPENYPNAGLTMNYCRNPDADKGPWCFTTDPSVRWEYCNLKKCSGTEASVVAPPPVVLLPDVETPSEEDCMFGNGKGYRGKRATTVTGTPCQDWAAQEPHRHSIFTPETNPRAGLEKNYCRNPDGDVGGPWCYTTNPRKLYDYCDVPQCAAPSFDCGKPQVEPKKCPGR
Plasminogen, sequence (P00747 581-810 limits assumed): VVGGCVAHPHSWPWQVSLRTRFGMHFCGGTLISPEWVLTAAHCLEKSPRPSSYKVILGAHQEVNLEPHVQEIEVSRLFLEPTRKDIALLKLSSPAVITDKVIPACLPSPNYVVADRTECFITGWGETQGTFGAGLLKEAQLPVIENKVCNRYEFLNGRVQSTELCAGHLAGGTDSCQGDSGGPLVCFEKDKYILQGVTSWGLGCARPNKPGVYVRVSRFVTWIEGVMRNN

For the compound `CC(=O)N[C@@H](/C=C1/C=C[C@H](N)CC1)C(=O)N[C@@H](/C=C1/C=C[C@H](NC(C)=O)CC1)C(=O)O` [DEHYDRORADIOSUMIN], the result (at Papain (Carica papaya); in assay [1]; in assay [2]; in assay [4]) was inactive. The IC50 in assay [3] was found to be 0.1 µg/mL (≈ 0.232 µM). Also, at Plasminogen, the pIC50 was 3.68.
